We go through three compounds from PMC5105127, “16-nor Limonoids from Harrisonia perforata as promising selective 11β-HSD1 inhibitors” (Scientific Reports, 2016).

Common to all, as to type: biochemical
Test [1] deals with T1, murine 11β-HSD1 (Mus musculus, UniProt P50172).
T1 construct: The full-length cDNAs of human or murine11β-HSD1 and 11β-HSD2 were isolated from the cDNA libraries; made in house; host or cells: HEK-293, stably transfected with a pcDNA3 plasmid; microsomal fraction
As to the kind of experiment: scintillation proximity assay (SPA), murine 11β-HSD1. On the procedure:
The inhibitory activity of compounds 1–3 on murine and human 11β-HSD1 was evaluated using the scintillation proximity assay (SPA)[25]. […] We further used the intact cell transfected with human HSD11B1 and HSD11B2 to screen their bioactivities. […] The inhibitory activities of the compounds on human or mouse 11β-HSD1 and 11β-HSD2 were determined using the scintillation proximity assay (SPA). The full-length cDNAs of human or murine11β-HSD1 and 11β-HSD2 were isolated from the cDNA libraries provided by NIH Mammalian Gene Collection. The cDNAs were cloned into pcDNA3 expression vectors. HEK-293 cells were transfected with the pcDNA3-derived expression plasmid and selected by cultivation in the presence of 700 μg/ml of G418. The microsomal fraction overexpressing 11β-HSD1 or 11β-HSD2 was prepared from the HEK-293 cells, which were stably transfected with 11β-HSD1 or 11β-HSD2. The fraction was then used as the enzyme source for SPA. Microsomes containing human or mouse 11β-HSD1 were incubated with NADPH and [^3H] cortisone. The product, [^3H] cortisol, was specifically captured by a monoclonal antibody coupled to protein A-coated SPA beads. The 11β-HSD2 screening was performed by incubating 11β-HSD2 microsomes with [^3H] cortisol and NAD + and monitoring substrate disappearance. All tests were done twice with glycyrrhizinic acid as a positive control.

The target in test [2] is T2, murine 11β-HSD2 (Mus musculus, UniProt P51661).
T2 construct: The full-length cDNAs of human or murine11β-HSD1 and 11β-HSD2 were isolated from the cDNA libraries; made in house; host or cells: HEK-293, stably transfected with a pcDNA3 plasmid; microsomal fraction
T2 sequence (P51661 1-386): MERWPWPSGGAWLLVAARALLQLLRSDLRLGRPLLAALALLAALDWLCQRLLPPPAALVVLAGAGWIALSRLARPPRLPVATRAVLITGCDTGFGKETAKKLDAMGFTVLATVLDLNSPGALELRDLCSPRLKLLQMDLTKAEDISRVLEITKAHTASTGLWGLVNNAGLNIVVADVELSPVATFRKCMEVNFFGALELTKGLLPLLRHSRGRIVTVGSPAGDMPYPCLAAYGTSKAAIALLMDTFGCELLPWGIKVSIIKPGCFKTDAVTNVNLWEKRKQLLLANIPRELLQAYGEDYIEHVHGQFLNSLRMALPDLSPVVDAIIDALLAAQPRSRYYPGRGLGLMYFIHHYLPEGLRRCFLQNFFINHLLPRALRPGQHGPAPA
The test is described as follows: scintillation proximity assay (SPA), murine 11β-HSD2. The method, then:
(§1) The inhibitory activity of compounds 1–3 on murine and human 11β-HSD1 was evaluated using the scintillation proximity assay (SPA)[25]. […] We further used the intact cell transfected with human HSD11B1 and HSD11B2 to screen their bioactivities.
(§2) The inhibitory activities of the compounds on human or mouse 11β-HSD1 and 11β-HSD2 were determined using the scintillation proximity assay (SPA). The full-length cDNAs of human or murine11β-HSD1 and 11β-HSD2 were isolated from the cDNA libraries provided by NIH Mammalian Gene Collection. The cDNAs were cloned into pcDNA3 expression vectors. HEK-293 cells were transfected with the pcDNA3-derived expression plasmid and selected by cultivation in the presence of 700 μg/ml of G418. The microsomal fraction overexpressing 11β-HSD1 or 11β-HSD2 was prepared from the HEK-293 cells, which were stably transfected with 11β-HSD1 or 11β-HSD2. The fraction was then used as the enzyme source for SPA. Microsomes containing human or mouse 11β-HSD1 were incubated with NADPH and [^3H] cortisone. The product, [^3H] cortisol, was specifically captured by a monoclonal antibody coupled to protein A-coated SPA beads. The 11β-HSD2 screening was performed by incubating 11β-HSD2 microsomes with [^3H] cortisol and NAD + and monitoring substrate disappearance. […] IC50 (X + SD, n = 2) values were calculated by using Prism Version 4 (GraphPad Software, SanDiego, CA).
A general note: SPA uses beads or plates that emit light when radiolabelled molecules are held near them.

The target in test [3] is T3, human 11β-HSD1 (Homo sapiens, UniProt P28845).
T3 construct: The full-length cDNAs of human or murine11β-HSD1 and 11β-HSD2 were isolated from the cDNA libraries; made in house; host or cells: HEK-293, stably transfected with a pcDNA3 plasmid; microsomal fraction
The test is described as follows: scintillation proximity assay (SPA), human 11β-HSD1. The method, then: as §1, §2

Test [4] concerns human 11β-HSD2. As to the kind of experiment: scintillation proximity assay (SPA), human 11β-HSD2. As to conditions: human 11β-HSD2 vs human 11β-HSD1. The method, then: as §1, §2

Each structure is given as a SMILES string. pIC50: −log10 of the molar value. Where two headings read alike, the source gives them in different places.

T1 sequence (P50172 whole entry): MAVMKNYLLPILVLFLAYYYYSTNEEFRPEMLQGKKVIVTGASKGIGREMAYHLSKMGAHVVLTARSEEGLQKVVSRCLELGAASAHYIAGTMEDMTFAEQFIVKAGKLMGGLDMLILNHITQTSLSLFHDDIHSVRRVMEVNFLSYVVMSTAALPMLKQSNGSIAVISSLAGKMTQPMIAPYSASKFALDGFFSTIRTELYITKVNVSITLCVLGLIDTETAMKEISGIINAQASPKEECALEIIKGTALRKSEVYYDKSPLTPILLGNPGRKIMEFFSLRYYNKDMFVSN
T3 sequence (P28845 whole entry): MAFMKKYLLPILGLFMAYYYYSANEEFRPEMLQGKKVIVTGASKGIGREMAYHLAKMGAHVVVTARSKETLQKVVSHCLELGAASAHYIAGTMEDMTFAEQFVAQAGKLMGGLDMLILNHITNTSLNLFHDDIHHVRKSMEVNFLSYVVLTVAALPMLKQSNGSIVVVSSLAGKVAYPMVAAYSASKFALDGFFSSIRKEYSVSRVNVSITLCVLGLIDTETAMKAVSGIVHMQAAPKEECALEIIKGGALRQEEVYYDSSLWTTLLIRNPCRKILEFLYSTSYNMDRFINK

On to `CC1(C)OC(=O)C=C[C@]2(C)O[C@@]3(CC4=C5C(=O)O[C@@H](c6ccoc6)[C@]5(C)CC[C@H]4O3)C[C@H]12` [Compound 1, Harperspinoid A], for which the inhibition at 0.1 µM in test [1] (0.1 μM, read-out: Inhibition rate on murine 11β-HSD1) worked out at 22.8%. In addition, in test [1] (0.3 μM, read-out: Inhibition rate on murine 11β-HSD1), the inhibition at 0.3 µM is 35.1%. For the same compound, the inhibition at 1 µM in test [1] (1 μM, read-out: Inhibition rate on murine 11β-HSD1) is 55.8%. Besides, in test [1] (3 μM, read-out: Inhibition rate on murine 11β-HSD1), the inhibition at 3 µM is 79.4%. In addition, the inhibition at 10 µM in test [1] (10 μM, read-out: Inhibition rate on murine 11β-HSD1) was found to be 90.5%. For the same compound, the negative-log IC50 (pIC50) in test [1] (SPA, text: intact CHOP cells transfected with murine HSD11B1, read-out: IC50, inhibition of murine 11β-HSD1) was 6.22. For the same compound, the “inhibition of murine 11β-HSD2 activity” value in test [2] (at 1 mM) is “did not inhibit the enzyme at all”. For the same compound, the “SI (selectivity against murine 11β-HSD2)” value in test [2] (murine 11β-HSD2 vs murine 11β-HSD1) was above 1661. Besides, the “inhibitory activity against human 11β-HSD1 enzyme” value in test [3] (in words) is listed as “low inhibitory activity”.
As to `CC1(C)[C@@H](O[C@H]2O[C@H](C(=O)O)[C@@H](O)[C@H](O)[C@H]2O[C@@H]2O[C@H](C(=O)O)[C@@H](O)[C@H](O)[C@H]2O)CC[C@]2(C)[C@H]3C(=O)C=C4[C@@H]5C[C@@](C)(C(=O)O)CC[C@]5(C)CC[C@@]4(C)[C@]3(C)CC[C@@H]12` [Glycyrrhizic acid, reference compound], in test [1] (1 nM, read-out: Inhibition rate on murine 11β-HSD1), the inhibition at 0.001 µM is 21.2%. The inhibition at 0.01 µM in test [1] (10 nM, read-out: Inhibition rate on murine 11β-HSD1) was 51.9%. The inhibition at 0.1 µM in test [1] (100 nM, read-out: Inhibition rate on murine 11β-HSD1) was 86.8%.
Consider `CC1=CC23C(=O)OC(C)(C)C1CC2(O)CC1=C2C(=O)OC(c4ccoc4)C2(C)CCC13` (centres unmarked) [Compound 3, Harperforin G], for which the pIC50 in test [3] (SPA, text: intact cell transfected with human HSD11B1, whole cell assay, read-out: IC50, inhibition of human 11β-HSD1) was 6.24. For the same compound, the “SI (selectivity against human 11β-HSD2)” value in test [4] is above 174.

In general, inhibition refers to the share of the control response that was lost under treatment. What is called pIC50 is −log10 of the IC50, conventionally taken in molar units.
